# Values of other authors, collected in patent publication US20100130442A1, “Lung Injury Treatment” (priority 2007, published 2010).
# Columns and labels:
# [1] = system: lung injury induced by intratracheal LPS in C57BL/6 mice; details: spontaneously ventilating C57BL/6 mice
# [2] = system: mechanical ventilation induced lung injury; details: in vivo
structure (smiles),measurement,setting,value
CCCCCCCCCCCCC/C=C/[C@@H](O)[C@@H](N)COP(=O)(O)O [Sphingosine-1-Phosphate],lung injury induced by intratracheal LPS,[1],attenuates
same,mechanical ventilation induced lung injury,[2],blocked
